From patent publication US12421278B2, “Immunomodulators” (Bristol-Myers Squibb Company, priority 2020, dated 2025)
Starred links: 1 amine or outer side, 2 acyl side, 3 side chain; linkers in the order of their positions; H or OH if unused. Positions of bridges follow the written chain, without caps; N, C: chain ends. Non-standard residues stand in square brackets, D forms with d. Residues, ends and D or L forms follow the SMILES beside them. Trp(1-CH2CO2Me) = COC(=O)Cn1cc(C[C@H](N)C(=O)O)c2ccccc21; Trp(1-CH2COOH) = N[C@@H](Cc1cn(CC(=O)O)c2ccccc12)C(=O)O; X4 = O=C(O)c1cc(NC(=S)[*:1])cc(NC(=S)[*:2])c1; X2 = O=C([C@H](CCNCC=[*:3])N[*:1])[*:2]; X1 = O=C([C@H](CNCC=[*:3])N[*:1])[*:2]; X3 = O=C(NCCCCCCNC(=O)[*:2])[*:1]; Hyp = O=C(O)[C@@H]1C[C@@H](O)CN1; Oxalyl = O=C(C(=O)[*:2])[*:1]; NMeNle = CCCC[C@H](NC)C(=O)O; NEtAla = CCN[C@@H](C)C(=O)O; NMeA = CN[C@@H](C)C(=O)O; Dab = NCC[C@H](N)C(=O)O; Dap = NC[C@H](N)C(=O)O

Biological target: T1, PD-1/PD-L1 (Homo sapiens, UniProt Q9NZQ7)
T1 construct: TVMV protease site (C); made in house; host or cells: HEK293T cells
T1 sequence (Q9NZQ7 18-239): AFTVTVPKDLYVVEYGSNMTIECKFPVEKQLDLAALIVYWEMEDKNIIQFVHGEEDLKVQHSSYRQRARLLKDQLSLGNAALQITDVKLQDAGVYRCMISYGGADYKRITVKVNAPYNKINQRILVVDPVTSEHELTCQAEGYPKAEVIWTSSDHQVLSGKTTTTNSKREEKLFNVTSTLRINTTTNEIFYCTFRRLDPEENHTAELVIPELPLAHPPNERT
Assay: PD-1/PD-L1 Homogenous Time-Resolved Fluorescence (HTRF) binding assay
Conditions: PD-L1-His 10 nM final, PD-1-Ig 20 nM final
Text: The ability of the compounds of formula (I) to bind to PD-L1 was investigated using a PD-1/PD-L1 Homogenous Time-Resolved Fluorescence (HTRF) binding assay.
Homogenous Time-Resolved Fluorescence (HTRF) Binding Assay
The interaction of PD-1 and PD-L1 can be assessed using soluble, purified preparations of the extracellular domains of the two proteins. The PD-1 and PD-L1 protein extracellular domains were expressed as fusion proteins with detection tags, for PD-1, the tag was the Fc portion of Immunoglobulin (PD-1-Ig) and for PD-L1 it was the 6 histidine motif (PD-L1-His). All binding studies were performed in an HTRF assay buffer consisting of dPBS supplemented with 0.1% […] bovine serum albumin and 0.05% (v/v) Tween-20. For the h/PD-L1-His binding assay, inhibitors were pre-incubated with PD-L1-His (10 nM final) for 15 m in 4 μl of assay buffer, followed by addition of PD-1-Ig (20 nM final) in 1 μl of assay buffer and further incubation for 15 m. HTRF detection was achieved using europium crypate-labeled anti-Ig (1 nM final) and allophycocyanin (APC) labeled anti-His (20 nM final). Antibodies were diluted in HTRF detection buffer and 5 μl was dispensed on top of the binding reaction. The reaction mixture was allowed to equilibrate for 30 minutes and the resulting signal (665 nm/620 nm ratio) was obtained using an EnVision fluorometer. Additional binding assays were established between the human proteins PD-1-Ig/PD-L2-His (20 & 5 nM, respectively) and CD80-His/PD-L1-Ig (100 & 10 nM, respectively).
Recombinant Proteins: Human PD-1 (25-167) with a C-terminal human Fc domain of immunoglobulin G (Ig) epitope tag [hPD-1 (25-167)-3S-IG] and human PD-L1 (18-239) with a C-terminal His epitope tag [hPD-L1(18-239)-TVMV-His] were expressed in HEK293T cells and purified sequentially by ProteinA affinity chromatography and size exclusion chromatography. Human PD-L2-His and CD80-His was obtained through commercial sources.
Table 1 lists the IC50 values for representative examples of this disclosure measured in the PD-1/PD-L1 Homogenous Time-Resolved Fluorescence (HTRF) binding assay.

Compound | IC50 [nM]
CCCC[C@H]1C(=O)N(C)[C@@H](CCCC)C(=O)N[C@@H](CC(C)C)C(=O)N[C@H](C(=O)NCC(N)=O)CSCC(=O)N[C@@H](Cc2ccc(O)cc2)C(=O)N(C)[C@H]2CN3CC[C@H](NC(=O)[C@H](Cc4c[nH]c5ccccc45)NC(=O)[C@@H]4C[C@@H](O)CN4C(=O)[C@H](CC(C)C)NC(=O)[C@H](CNc4c3c(=O)c4=O)NC(=O)[C@@H]3CCCN3C(=O)[C@H](CC(N)=O)NC2=O)C(=O)N[C@@H](Cc2cn(CC(=O)O)c3ccccc23)C(=O)N1C [Example 1002] | 210
CCCC[C@H]1C(=O)N(C)[C@@H](CCCC)C(=O)N[C@@H](CC(C)C)C(=O)N[C@H](C(=O)NCC(N)=O)CSCC(=O)N[C@@H](Cc2ccc(O)cc2)C(=O)N(C)[C@@H](C)C(=O)N[C@@H](CC(N)=O)C(=O)N(CC)[C@@H](C)C(=O)N[C@H]2CNC/C=C\CNCC[C@H](NC(=O)[C@H](Cc3c[nH]c4ccccc34)NC(=O)[C@@H]3C[C@@H](O)CN3C(=O)[C@H](CC(C)C)NC2=O)C(=O)N[C@@H](Cc2cn(CC(=O)O)c3ccccc23)C(=O)N1C [Example 1005] ({CH2CO}-Y[NMeA]N[NEtAla][X1]L[Hyp]W[X2][Trp(1-CH2COOH)][NMeNle][NMeNle]LCG-NH2; staple (Z) 5-9; thioether N-14) | 8.3
CCCC[C@H]1C(=O)N(C)[C@@H](CCCC)C(=O)N[C@@H](CC(C)C)C(=O)N[C@H](C(=O)NCC(N)=O)CSCC(=O)N[C@@H](Cc2ccc(O)cc2)C(=O)N(C)[C@@H](C)C(=O)N[C@@H](CC(N)=O)C(=O)N2CCC[C@H]2C(=O)N[C@H]2CNC(=S)Nc3cc(cc(C(=O)O)c3)NC(=S)NCC[C@H](NC(=O)[C@H](Cc3c[nH]c4ccccc34)NC(=O)[C@@H]3C[C@@H](O)CN3C(=O)[C@H](CC(C)C)NC2=O)C(=O)N[C@@H](Cc2cn(CC(=O)O)c3ccccc23)C(=O)N1C [Example 1007] ({CH2CO}-Y[NMeA]NP[Dap]L[Hyp]W[Dab][Trp(1-CH2COOH)][NMeNle][NMeNle]LCG-NH2; linker 5-9 via X4; thioether N-14) | 78

The remaining lines, values ahead:

IC50 [nM] | Compound
4 | CCCC[C@H]1C(=O)N(C)[C@@H](CCCC)C(=O)N[C@@H](CC(C)C)C(=O)N[C@H](C(=O)NCC(N)=O)CSCC(=O)N[C@@H](Cc2ccc(O)cc2)C(=O)N(C)[C@@H](C)C(=O)N[C@@H](CC(N)=O)C(=O)N2CCC[C@H]2C(=O)N[C@H]2CNC(=O)NCCCCCCNC(=O)NCC[C@H](NC(=O)[C@H](Cc3c[nH]c4ccccc34)NC(=O)[C@@H]3C[C@@H](O)CN3C(=O)[C@H](CC(C)C)NC2=O)C(=O)N[C@@H](Cc2cn(CC(=O)O)c3ccccc23)C(=O)N1C [Example 1001] ({CH2CO}-Y[NMeA]NP[Dap]L[Hyp]W[Dab][Trp(1-CH2COOH)][NMeNle][NMeNle]LCG-NH2; linker 5-9 via X3; thioether N-14)
120 | CCCC[C@H]1C(=O)N(C)[C@@H](CCCC)C(=O)N[C@@H](CC(C)C)C(=O)N[C@H](C(=O)NCC(N)=O)CSCC(=O)N[C@@H](Cc2ccc(O)cc2)C(=O)N(C)[C@@H](C)C(=O)N[C@@H](CC(N)=O)C(=O)N2CCC[C@H]2C(=O)N[C@H]2CNC(=O)C(=O)NCC[C@H](NC(=O)[C@H](Cc3c[nH]c4ccccc34)NC(=O)[C@@H]3C[C@@H](O)CN3C(=O)[C@H](CC(C)C)NC2=O)C(=O)N[C@@H](Cc2cn(CC(=O)OC)c3ccccc23)C(=O)N1C [Example 1003] ({CH2CO}-Y[NMeA]NP[Dap]L[Hyp]W[Dab][Trp(1-CH2CO2Me)][NMeNle][NMeNle]LCG-NH2; linker 5-9 via Oxalyl; thioether N-14)
11 | CCCC[C@H]1C(=O)N(C)[C@@H](CCCC)C(=O)N[C@@H](CC(C)C)C(=O)N[C@H](C(=O)NCC(N)=O)CSCC(=O)N[C@@H](Cc2ccc(O)cc2)C(=O)N(C)[C@@H](C)C(=O)N[C@@H](CC(N)=O)C(=O)N2CCC[C@H]2C(=O)N[C@H]2CNCC(O)COCC(O)CNCC[C@H](NC(=O)[C@H](Cc3c[nH]c4ccccc34)NC(=O)[C@@H]3C[C@@H](O)CN3C(=O)[C@H](CC(C)C)NC2=O)C(=O)N[C@@H](Cc2cn(CC(=O)O)c3ccccc23)C(=O)N1C (stereo partly drawn) [Example 1004]
